In patent publication US20040242487A1, “Regulation of eating behavior” (Joslin Diabetes Center, Inc., a Massachusetts corporation, priority 1995, published 2004):
“Also recorded” adds a separate entry of the source.

Assays:
MC3-R = biological target: T1, MC3-R (Mus musculus, UniProt P33033); test: HEK-293 assay: ACTH binding to MC3-R after exposure to MCH; format: cell-based; conditions: HEK-293 cells stably transfected with MC3-R; exposure to 10^-7 M MCH for 20 minutes or overnight
T1 construct: expressed in transfected cells; host or cells: HEK-293 (human kidney), stably transfected
T1 sequence (P33033 whole entry): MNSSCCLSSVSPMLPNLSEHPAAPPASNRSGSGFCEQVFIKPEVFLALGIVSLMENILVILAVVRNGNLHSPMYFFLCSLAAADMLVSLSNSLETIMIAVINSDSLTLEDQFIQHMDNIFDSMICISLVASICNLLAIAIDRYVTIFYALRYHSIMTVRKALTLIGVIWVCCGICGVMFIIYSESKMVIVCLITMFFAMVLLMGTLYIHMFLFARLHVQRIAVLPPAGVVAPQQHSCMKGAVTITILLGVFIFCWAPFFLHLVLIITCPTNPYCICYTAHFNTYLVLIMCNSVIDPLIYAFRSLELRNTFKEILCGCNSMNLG
Procedure: As discussed herein, heterologous human kidney, HEK-293 cells stably transfected with a plasmid carrying MC3-R can be used to assay MCH activity. It is not clear whether the MCH interaction with the MC3-R receptor is direct or indirect, but application of MCH results in an increase in binding of ACTH to the MC3-R receptor. […] Exposure of cells to 10^-7 M MCH for 20 minutes or overnight results in a 15-100% increase in ACTH binding.

rat = test: In vivo rodent brain assay: intraventricular injection, eating behavior; conditions: intraventricular (third ventricle) injection of 5 μg MCH in 5 μl phosphate buffered saline, versus saline controls
Text: As discussed herein, rodents, e.g., rats, can be used to assay MCH activity in vivo. A Teflon catheter can be inserted into the third ventricle of a rat and cemented into place. MCH or its analogs, e.g., agonists or antagonists, can be introduced by way of the catheter at various concentrations, and their effect on eating behavior determined.
To further evaluate the importance of MCH as an appetite regulator, a Teflon catheter was inserted into the third ventricle of a rat and cemented into place, followed by intraventricular injection of 5 μg of MCH in 5 μl of phosphate buffered saline. Control animals received only phosphate buffered saline.

melanocyte concentrating hormone [MCH]
increase in ACTH binding (MC3-R): 15-100%
Kcal consumed within one hour (rat): more than doubling; also recorded: doubling
